For six compounds, IC50 results are on record in patent US8163724B2, “Glucocorticosteroids, processes for their preparation, pharmaceutical compositions containing them and their use in therapy” (AstraZeneca AB, priority 2007, dated 2012).

Structures are written as SMILES.

The test concerns the target T1, recombinant human GR (Homo sapiens, UniProt P04150).
T1 construct: purchased Panvera/Invitrogen P2812 (kit P2893)
T1 sequence (P04150 1-777): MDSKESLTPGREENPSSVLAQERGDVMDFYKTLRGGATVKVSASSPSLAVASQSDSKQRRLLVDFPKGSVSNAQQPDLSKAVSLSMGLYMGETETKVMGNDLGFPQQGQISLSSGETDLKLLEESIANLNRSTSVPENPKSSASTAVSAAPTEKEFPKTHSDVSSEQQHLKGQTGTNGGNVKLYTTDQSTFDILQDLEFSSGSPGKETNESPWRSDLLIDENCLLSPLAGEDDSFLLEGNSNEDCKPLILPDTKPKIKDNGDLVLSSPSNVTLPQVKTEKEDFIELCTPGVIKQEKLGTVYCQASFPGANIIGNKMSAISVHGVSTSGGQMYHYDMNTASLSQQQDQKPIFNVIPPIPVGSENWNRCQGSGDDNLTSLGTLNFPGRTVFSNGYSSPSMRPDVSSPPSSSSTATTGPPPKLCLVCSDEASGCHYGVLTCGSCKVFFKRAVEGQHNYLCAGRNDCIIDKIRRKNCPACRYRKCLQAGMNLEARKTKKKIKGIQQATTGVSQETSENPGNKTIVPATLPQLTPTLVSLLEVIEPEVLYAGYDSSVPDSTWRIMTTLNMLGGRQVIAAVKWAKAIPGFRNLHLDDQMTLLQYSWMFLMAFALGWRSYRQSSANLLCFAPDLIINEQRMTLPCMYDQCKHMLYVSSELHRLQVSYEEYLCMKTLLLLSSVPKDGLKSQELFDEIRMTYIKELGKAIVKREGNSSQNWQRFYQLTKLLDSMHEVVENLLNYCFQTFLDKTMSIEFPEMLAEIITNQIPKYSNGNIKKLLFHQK
Kind of test: Human Glucocorticoid Receptor (GR) Assay (fluorescence polarization, Panvera/Invitrogen kit). The test is classed as binding. The following applies: fluorescence polarization; GS Red tracer; 2 hours at room temperature; 100% control 10 μM Dexamethasone; read-out: Inhibition of GR binding, IC50. In a few lines:
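Fluorescence polarization competition with recombinant GR and GS Red fluorescent ligand plus stabilizing peptide and DTT in potassium phosphate/sodium molybdate/EDTA buffer with DMSO. Incubated 2 hours at room temperature in the dark; 0% control DMSO, 100% control 10 μM dexamethasone.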
(In fluorescence polarisation assays a small probe gives low polarisation when free and higher when bound to something large.)
What is called IC50 is the concentration at which inhibition is half-maximal. Take `COC1(C(=O)O[C@]2(C(=O)SCC#N)CC[C@H]3[C@@H]4CCC5=Cc6c(cnn6-c6ccc(F)cc6)C[C@]5(C)[C@H]4[C@@H](O)C[C@@]32C)CC1` [Example 135, (1R,3aS,3bS,10aR,10bS,11S,12aS)-1-{[(Cyanomethyl)sulfanyl]carbonyl}-7-(4-fluorophenyl)-11-hydroxy-10a,12a-dimethyl-1,2,3,3a,3b,4,5,7,10,10a,10b,11,12,12a-tetradecahydrocyclopenta[5,6]naphtho[1,2-f]indazol-1-yl 1-methoxycyclopropanecarboxylate]: the IC50 is 7.6 nM.

Take `C[C@]12Cc3cnn(-c4ccc(F)cc4)c3C=C1CC[C@@H]1[C@@H]2[C@@H](O)C[C@@]2(C)[C@H]1CC[C@]2(OC(=O)C1CCCO1)C(=O)SCF` (stereo partly drawn) [Example 137, (1R,3aS,3bS,10aR,10bS,11S,12aS)-1-{[(Fluoromethyl)sulfanyl]carbonyl}-7-(4-fluorophenyl)-11-hydroxy-10a,12a-dimethyl-1,2,3,3a,3b,4,5,7,10a,10b,11,12,12a-tetradecahydrocyclopenta[5,6]naphtho[1,2-f]indazol-1-yl (2R)-tetrahydrofuran-2-carboxylate]: the half-inhibitory concentration (IC50) amounted to 2.8 nM.

Turning to `C[C@]12Cc3cnn(-c4ccc(F)c(CO)c4)c3C=C1CC[C@@H]1[C@@H]2[C@@H](O)C[C@@]2(C)[C@H]1CC[C@]2(OC(=O)C1CC1)C(=O)SCF` [Example 139, (1R,3aS,3bS,10aR,10bS,11S,12aS)-7-[4-Fluoro-3-(hydroxymethyl)phenyl]-1-{[(fluoromethyl)thio]carbonyl}-11-hydroxy-10a,12a-dimethyl-1,2,3,3a,3b, 4,5,7,10,10a,10b,11,12,12a-tetradecahydrocyclopenta[5,6]naphtho[1,2-f]indazol-1-yl cyclopropanecarboxylate], the concentration for half-maximal inhibition (IC50) came to 3.5 nM.

As to `COCC(=O)O[C@]1(C(=O)SCC#N)CC[C@H]2[C@@H]3CCC4=Cc5c(cnn5-c5ccc(F)c(CO)c5)C[C@]4(C)[C@H]3[C@@H](O)C[C@@]21C` [Example 140, (1R,3aS,3bS,10R,10bS,11S,12aS)-1-{[(Cyanomethyl)thio]carbonyl}-7-[4-fluoro-3-(hydroxymethyl)phenyl]-11a,12a-dimethyl-1,2,3,3a,3b,4,5,7,10,10a,10b,11,12,12a-tetradecahydrocyclopenta[5,6]naphtho[1,2-f]indazol-1-yl Methoxyacetate], the IC50 amounted to 2.3 nM.

With `C[C@@H]1C[C@H]2[C@@H]3CCC4=Cc5c(cnn5-c5ccc(F)cc5)C[C@]4(C)[C@H]3[C@@H](O)C[C@]2(C)[C@@]1(OC(=O)c1ccco1)C(=O)SCC#N` [Example 141, (1R,2R,3aS,3bS,10aR,10bS,11S,12aS)-1-{[(Cyanomethyl)thio]carbonyl}-7-(4-fluorophenyl)-11-hydroxy-2,10a,12a-trimethyl-1,2,3,3a,3b,4,5,7,10,10a,10b,11,12,12a-tetradecahydrocyclopenta[5,6]naphtho[1,2-f]indazol-1-yl furan-2-carboxylate], the IC50 was determined as 13 nM.

On to `Cc1cc(-n2ncc3c2C=C2CC[C@@H]4[C@H]([C@@H](O)C[C@@]5(C)[C@H]4CC[C@]5(OC(=O)C4CC4)C(=O)OCC#N)[C@@]2(C)C3)ccn1` [Example 142, Cyanomethyl(1R,3aS,3bS,10aR,10bS,11S,12aS)-1-[(cyclopropylcarbonyl)oxy]-11-hydroxy-10a,12a-dimethyl-7-(2-methylpyridin-4-yl)-1,2,3,3a,3b,4,5,7,10,10a,10b,11,12,12a-tetradecahydrocyclopenta[5,6]naphtho[1,2-]indazole-1-carboxylate], for which the IC50 was found to be 1.6 nM.
